Measured values published in PubChem BioAssay AID256 (DTP/NCI, 2004).
“And” between values parts separate entries of the source, which are not always exact repeats. Equal entries are not always repeated. Inconclusive results and toxic doses are left out. How the source made its calls: active means survival T/C of 150% or more; inactive means T/C below 125% in these data.

Test system: CD2F1 mice, L1210 leukemia ip, survival T/C
Assay: NCI In Vivo Anticancer Drug Screen. Data for tumor model L1210 Leukemia (intraperitoneal) in CD2F1 (CDF1) mice
Settings: higher = longer survival
How it was run: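 Vehicle-treated tumor-bearing mice served as controls (C) for compound-treated mice (T). Reported figure is T divided by C.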

[1] = endpoint: mean survival time, dose: 100.0 mg/kg/injection, schedule: Q04DX003 (ip), vehicle: saline
[2] = endpoint: mean survival time, dose: 100.0 mg/kg/injection, schedule: Q04DX002 (ip), vehicle: saline with Tween-80
[3] = endpoint: mean survival time, dose: 200.0 mg/kg/injection, schedule: Q04DX002 (ip), vehicle: saline with Tween-80
[4] = endpoint: mean survival time, dose: 25.0 mg/kg/injection, schedule: Q01DX009 (ip), vehicle: saline with Tween-80
[5] = endpoint: mean survival time, dose: 50.0 mg/kg/injection, schedule: Q01DX009 (ip), vehicle: saline with Tween-80
[6] = endpoint: mean survival time, dose: 100.0 mg/kg/injection, schedule: Q01DX009 (ip), vehicle: saline with Tween-80
[7] = endpoint: mean survival time, dose: 100.0 mg/kg/injection, schedule: Q04DX003 (ip), vehicle: saline with Tween-80
[8] = endpoint: mean survival time, dose: 200.0 mg/kg/injection, schedule: Q04DX003 (ip), vehicle: saline with Tween-80
[9] = endpoint: mean survival time, dose: 100.0 mg/kg/injection, schedule: Q01DX001 (ip), vehicle: saline with Tween-80
[10] = endpoint: mean survival time, dose: 200.0 mg/kg/injection, schedule: Q01DX001 (ip), vehicle: saline with Tween-80
[11] = endpoint: mean survival time, dose: 200.0 mg/kg/injection, schedule: Q01DX009 (ip), vehicle: saline with Tween-80
[12] = endpoint: mean survival time, dose: 400.0 mg/kg/injection, schedule: Q01DX001 (ip), vehicle: saline with Tween-80

Measured: T/C

CC([NH-])c1ccccc1.[Cl][Pt]([Cl])[Cl] (centres undefined)
inactive: [1] 101 % of control | endpoint: mean survival time, dose: 200.0 mg/kg/injection, schedule: Q04DX003 (ip), vehicle: saline 100 % of control | endpoint: mean survival time, dose: 400.0 mg/kg/injection, schedule: Q04DX003 (ip), vehicle: saline 101 % of control

CN(C)c1ncnc(-c2ccncc2)n1
inactive: [2] 88 % of control | [3] 100 % of control

O=C1OC(c2ccccc2)CC1N1CCCCC1 (centres undefined)
inactive: endpoint: mean survival time, dose: 6.25 mg/kg/injection, schedule: Q01DX009 (ip), vehicle: saline sonified 92 % of control | endpoint: mean survival time, dose: 12.5 mg/kg/injection, schedule: Q01DX009 (ip), vehicle: saline sonified 101 % of control | endpoint: mean survival time, dose: 25.0 mg/kg/injection, schedule: Q01DX009 (ip), vehicle: saline sonified 105 % of control

Nc1ncnc2c1nc(-c1ccccc1)n2C1OC(CO)C(O)C1O (centres undefined)
inactive: endpoint: median survival time, dose: 25.0 mg/kg/injection, schedule: Q01DX005 (ip), vehicle: distilled water + Tween-80 100 % of control | endpoint: median survival time, dose: 50.0 mg/kg/injection, schedule: Q01DX005 (ip), vehicle: distilled water + Tween-80 97 % of control | endpoint: median survival time, dose: 100.0 mg/kg/injection, schedule: Q01DX005 (ip), vehicle: distilled water + Tween-80 100 % of control | endpoint: median survival time, dose: 200.0 mg/kg/injection, schedule: Q01DX005 (ip), vehicle: distilled water + Tween-80 100 % of control

N#CSc1nc2ccccc2s1
inactive: [4] 96 % of control | [5] 94 % of control | [6] 97 % of control

OC1=C2CCCCCC2=[N+]2CCCCC2C1 (centres undefined)
inactive: [7] 95 % of control | [8] 95 % of control

C=CC(O)Cc1ccccc1 (centres undefined) (tested in a mixture with another compound)
inactive: endpoint: mean survival time, dose: 75.0 mg/kg/injection, schedule: Q01DX009 (ip), vehicle: saline 98 % of control | endpoint: mean survival time, dose: 150.0 mg/kg/injection, schedule: Q01DX009 (ip), vehicle: saline 101 % of control | endpoint: mean survival time, dose: 300.0 mg/kg/injection, schedule: Q01DX009 (ip), vehicle: saline 107 % of control

COc1ccc(N)cc1OC
inactive: endpoint: mean survival time, dose: 100.0 mg/kg/injection, schedule: Q01DX009 (ip), vehicle: saline 96 % of control | endpoint: mean survival time, dose: 200.0 mg/kg/injection, schedule: Q01DX009 (ip), vehicle: saline 102 % of control | endpoint: mean survival time, dose: 400.0 mg/kg/injection, schedule: Q01DX009 (ip), vehicle: saline 98 % of control

CC(=O)c1ccc(N=NNc2ccc(C(C)=O)cc2)cc1
inactive: [9] 103 % of control | [6] 96 % of control | [10] 95 % of control | [11] 95 % of control | [12] 95 % of control

OCC1OC(n2cnc3cc(Cl)c(Cl)cc32)C(O)C1O (centres undefined)
inactive: endpoint: median survival time, dose: 25.0 mg/kg/injection, schedule: Q01DX009 (ip), vehicle: saline with Tween-80 97 % of control and 103 % of control | endpoint: median survival time, dose: 50.0 mg/kg/injection, schedule: Q01DX009 (ip), vehicle: saline with Tween-80 106 % of control | endpoint: median survival time, dose: 100.0 mg/kg/injection, schedule: Q01DX009 (ip), vehicle: saline with Tween-80 120 % of control and 110 % of control and 112 % of control | endpoint: median survival time, dose: 200.0 mg/kg/injection, schedule: Q01DX009 (ip), vehicle: saline with Tween-80 120 % of control

O=C(COCC(=O)N/N=C/c1ccc(Cl)c(Cl)c1)N/N=C/c1ccc(Cl)c(Cl)c1
inactive: [9] 94 % of control | [10] 94 % of control | [12] 96 % of control

COc1ccc(CC(=O)C(C)C(O)(C(F)(F)F)C(F)(F)F)cc1OC (centres undefined)
inactive: [7] 108 % of control | [8] 102 % of control | endpoint: mean survival time, dose: 400.0 mg/kg/injection, schedule: Q04DX003 (ip), vehicle: saline with Tween-80 103 % of control

Nc1ccc(N(c2ccccc2)c2ccccc2)cc1
inactive: endpoint: mean survival time, dose: 100.0 mg/kg/injection, schedule: Q04DX002 (ip), vehicle: Klucel (hydroxypropylcellulose) (HPC) 97 % of control | endpoint: mean survival time, dose: 200.0 mg/kg/injection, schedule: Q04DX002 (ip), vehicle: Klucel (hydroxypropylcellulose) (HPC) 86 % of control | endpoint: mean survival time, dose: 400.0 mg/kg/injection, schedule: Q04DX002 (ip), vehicle: Klucel (hydroxypropylcellulose) (HPC) 89 % of control

CCOC(=O)c1ccc(Cl)cc1
inactive: [4] 101 % of control | [5] 102 % of control | [6] 95 % of control

CCC(CC)COC(=O)c1ccccc1C(=O)OCC(CC)CC
inactive: endpoint: mean survival time, dose: 12.5 mg/kg/injection, schedule: Q01DX009 (ip), vehicle: saline with Tween-80 108 % of control | [4] 101 % of control | [5] 104 % of control | [6] 102 % of control | [11] 98 % of control | endpoint: mean survival time, dose: 400.0 mg/kg/injection, schedule: Q01DX009 (ip), vehicle: saline with Tween-80 100 % of control

CCCCNCCN(CC)CC
inactive: [4] 94 % of control | endpoint: mean survival time, dose: 25.0 mg/kg/injection, schedule: Q04DX003 (ip), vehicle: saline 94 % of control | [5] 96 % of control | endpoint: mean survival time, dose: 50.0 mg/kg/injection, schedule: Q04DX003 (ip), vehicle: saline 89 % of control | [6] 93 % of control | [1] 97 % of control

C/C(=N\NC(N)=S)C1=C(O)C(Cc2ccccc2)NC1=O (centres undefined)
inactive: [2] 100 % of control | [3] 100 % of control | endpoint: mean survival time, dose: 400.0 mg/kg/injection, schedule: Q04DX002 (ip), vehicle: saline with Tween-80 100 % of control
